Data: patent US11166977B2, “Compositions for treating meibomian gland dysfunction” (ADS THERAPEUTICS LLC, priority 2019, dated 2021)

Tests used:
[1] = Aqueous solution at 37° C.; concentration of CDs 1.0 × 10^−2M; cited from earlier work
[2] = tested on: Patients with Primary or Recurrent Pterygium; experiment: Phase 2a clinical trial in pterygium patients: ocular symptom and PSLQ questionnaire scores; type: in vivo, human
Source text: 2-HP-β-CD Formulation I was used as vehicle.
A trend of effects also remained after the stop of treatment at weeks 8, 16, and 24. The other questions didn't generate statistically significant effects.
These ocular symptoms are often observed in MGD patients. Scores of these symptoms were graded by patients as part of PSLQ questionnaires.

In the case of OC[C@H]1O[C@@H]2O[C@H]3[C@H](O)[C@@H](O)[C@@H](O[C@H]4[C@H](O)[C@@H](O)[C@@H](O[C@H]5[C@H](O)[C@@H](O)[C@@H](O[C@H]6[C@H](O)[C@@H](O)[C@@H](O[C@H]7[C@H](O)[C@@H](O)[C@@H](O[C@H]8[C@H](O)[C@@H](O)[C@@H](O[C@H]9[C@H](O)[C@@H](O)[C@@H](O[C@H]1[C@H](O)[C@H]2O)O[C@@H]9CO)O[C@@H]8CO)O[C@@H]7CO)O[C@@H]6CO)O[C@@H]5CO)O[C@@H]4CO)O[C@@H]3CO [Gamma-CD, gamma-cyclodextrin], the “Increase in Absorbance (600 nm) Due to Cholesterol Dissolved by CDs” value (shortened to “Increase in Absorbance (600 nm) Due”) [1] is listed as “zero”.
In the case of “2-Hydroxypropyl-beta-cyclodextrin [Formulation 2-HP-β-CD]”, the “PSLQ Overall Average Score, Baseline Mean (SD)” value ([2]; Baseline, Modified Intent-to-Treat Population, N = 23) is reported as 0.70 (0.66), the “PSLQ Average Ocular Symptom Score, Baseline Mean (SD)” value ([2]; Baseline, mITT, N = 23) is reported as 0.88 (0.81) and the “PSLQ Average Quality of Life Impact Score, Baseline Mean (SD)” value ([2]; Baseline, mITT, N = 23) is reported as 0.57 (0.92). For the same compound, the “PSLQ Average Vision-Related Functioning Score, Baseline Mean (SD)” value ([2]; Baseline, mITT, N = 23) was 0.57 (0.80), the “PSLQ Average Vision-Related Functioning Score, Change from Baseline Mean (SD)” value ([2]; Week 2, mITT, N = 23) was −0.27 (0.65) and the “PSLQ Average Vision-Related Functioning Score, Change from Baseline Mean (SD)” value ([2]; Week 4, mITT, N = 23) was −0.48 (0.65). The “PSLQ Average Vision-Related Functioning Score, Change from Baseline Mean (SD)” value ([2]; Week 8, mITT, N = 23) was −0.43 (0.62), the “PSLQ Average Vision-Related Functioning Score, Change from Baseline Mean (SD)” value ([2]; Week 16, mITT, N = 23) was −0.23 (0.56) and the “PSLQ Average Vision-Related Functioning Score, Change from Baseline Mean (SD)” value ([2]; Week 24, mITT, N = 23) was −0.11 (1.1). The “PSLQ scores compared to the baseline (in words)” value ([2]; human, in vivo) was “significant improvements”.
In the case of COCC1O[C@@H]2O[C@@H]3C(COC)O[C@H](O[C@@H]4C(COC)O[C@H](O[C@@H]5C(COC)O[C@H](O[C@@H]6C(COC)O[C@H](O[C@@H]7C(COC)O[C@H](O[C@@H]8C(COC)O[C@H](O[C@H]1C(O)C2OC)C(OC)C8O)C(OC)C7O)C(OC)C6O)C(OC)C5O)C(OC)C4O)C(OC)C3O (stereo partly drawn) [DOM-beta-CD, 2,6-Di-O-methyl-beta-cyclodextrin], the “Increase in Absorbance (600 nm) Due” value [1] is listed as “a remarkable increase in absorbance”.
In the case of COC(=O)c1ccc2c(c1)NC(=O)/C2=C(\Nc1ccc(N(C)C(=O)CN2CCN(C)CC2)cc1)c1ccccc1 [Nintedanib 0.2%, nintedanib, reference compound], the “PSLQ scores, Nintedanib 0.2% vs Vehicle (in words)” value ([2]; pterygium patients with dry eye condition) is reported as “no statistically significant differences”.
In the case of OC[C@H]1O[C@@H]2O[C@H]3[C@H](O)[C@@H](O)[C@@H](O[C@H]4[C@H](O)[C@@H](O)[C@@H](O[C@H]5[C@H](O)[C@@H](O)[C@@H](O[C@H]6[C@H](O)[C@@H](O)[C@@H](O[C@H]7[C@H](O)[C@@H](O)[C@@H](O[C@H]1[C@H](O)[C@H]2O)O[C@@H]7CO)O[C@@H]6CO)O[C@@H]5CO)O[C@@H]4CO)O[C@@H]3CO [Alpha-CD, alpha-cyclodextrin], the “Increase in Absorbance (600 nm) Due” value [1] is listed as “zero”.
